The source of these data is patent US5336677A, “Substituted aminopyrimidines as antihypertensives” (American Home Products Corporation, priority 1992, dated 1994).

The target of one assay is angiotensin II receptor. Description: rat adrenal receptor binding assay, displacement of radiolabeled angiotensin II (Inhibition of 125I Angiotensin II Binding). Particulars: rat adrenal cortex membranes; 1 nM 125I-A II; 25° C.; 35 min. How it is done:
The high affinity of the compounds for the angiotensin II receptor was established using a rat adrenal receptor binding assay, measuring the displacement of radiolabeled angiotensin II from the receptor, described as follows: Anesthetize male Sprague-Dawley rats (300-400 g body weight) with CO2 and sacrifice by cervical dislocation. Dissect adrenal glands and keep in ice-cold sucrose buffer. (0.2M sucrose, 1 mM EDTA, 10 mM Trizma base, pH=7.2). Remove medulla by squashing. Mince the cortex, rinse and homogenize in a chilled ground glass tissue grinder with 15 ml sucrose buffer. Centrifuge at 3000× g for 10 min. (Sorvall RCSC centrifuge, SS34 rotor 6200 rpm). Decant supernatant through gauze. Centrifuge combined supernatants at 12,000× g for 13 min. (Beckman ultracentrifuge, 80Ti rotor, 13,000 rpm). […] (Beckman ultracentrifuge, 80Ti rotor, 38,200 rpm). All steps are carried out at 4° C. Resuspend the pellet in 0.5 mL assay buffer (50 mM Tris HCI, 5 mM MgCl2, 0.2% BSA (protease-free), pH= 7.4, 25° C.). Store on ice. Determine membrane protein by Lowry or Bradford assay with BSA as standard. The binding assay is performed in triplicate, in 12×75 mm plastic test tubes or in 96-well plate (final volume of 0.25 mL). Add 140 μL assay buffer. […] Add 50 μL membrane suspension (e.g., 10 μg protein). Preincubate for 30 min at 25° C. […] Incubate for 35 min at 25° C. Stop the incubation by adding 1 mL ice-cold buffer (assay buffer without BSA). Filter with GF/C filters on cell harvester (filters are presoaked in the assay buffer containing 1% polyethyleneimine). Rinse assay tubes 3× with 5 mL cold buffer (assay buffer without BSA). Cut and deposit the filter discs into test tubes and count on gamma counter for 1 min. […] Calculate the quantities of hot A II and the cold A II needed and make the dilution. Aliquot, seal tight, and store frozen until needed. Calculate the concentration of the total A II (hot+cold) after dilution. On the day of assay, thaw the frozen aliquot and adjust the volume to give a concentration of 5 pmole/mL (or 0.25 pmole/50 μL) with assay buffer (+protease-free BSA).

In the next assay the test system is A II-infused rat. Kind of assay: A II-infused rat model, antihypertensive action. Type of assay: in vivo. As to conditions: 3 mg/kg id (duodenal); four hours post-administration; ganglion-blocked (mecamylamine), A II infusion 0.25 μg/kg/min. How it is done: In accordance with their ability to antagonize angiotensin II, the compounds of this invention show antihypertensive action in the following A II-infused rat model. Rats are anesthetized with Dial-Urethane (0.60 mL/kg, ip) and the trachea cannulated with PE 240. Either one femoral artery and both femoral veins or the carotid artery and the corresponding jugular vein are cannulated with PE 50. If the jugular vein is cannulated, two cannulas are placed in the one vein. The initial portion of the duodenum (just distal to the stomach) is cannulated with PE 50 via a small midline incision. Arterial pressure and heart rate are measured from the arterial cannula. Ten to 15 min are allowed following surgery for stabilization of arterial pressure. Ganglion blockade is then produced by intravenous administration of mecamylamine at 3 mg/kg (1 mL/kg of a 3 mg/mL solution). Ganglion blockade causes a fall in arterial pressure of about 50 mmHg. Mecamylamine is given every 90 min throughout the remainder of the experiment. An A II infusion is then begun into the other venous cannula at 0.25 μg/kg/min (at 9.6 u Vmin). The A II infusion returns arterial pressure to or slightly above the control level. Once arterial pressure has stabilized with the A II infusion, baseline values for mean arterial pressure (MAP) and heart rate are taken. […]

Counter-ions that a name gives are not always drawn.

Consider `CCCc1c(C)nc(C(F)(F)F)nc1NCc1ccc(-c2ccccc2-c2nnn[nH]2)cc1` [Example 34, 6-Methyl-5-propyl-N-[[2'-(1H-tetrazol-5-yl)[1,1'-biphenyl]-4-yl]methyl]-2-(trifluoromethyl)-4-pyrimidinamine sodium salt hemihydrate], for which the IC50 – broadly, the midpoint of a concentration-inhibition curve – at angiotensin II receptor was found to be 25 nM.

`Cc1nc(C(F)(F)F)nc(NCc2ccc(-c3ccccc3-c3nnn[nH]3)cc2)c1C(C)C` [Example 35, 6-Methyl-5-(1-methylethyl)-N-[[2'-(1H-tetrazol-5-yl)[1,1'-biphenyl]-4-yl]methyl]-2-(trifluoromethyl)-4-pyrimidinamine sodium salt sesquihydrate]: the IC50 at angiotensin II receptor came to 3 nM. Still for that read-out and setting: with `CCc1cc(NCc2ccc(-c3ccccc3-c3nnn[nH]3)cc2)nc(C(F)(F)F)n1` [Example 36, 6-Ethyl-N-[[2'-(1H-tetrazol-5-yl)[1,1'-biphenyl]-4-yl]methyl]-2-(trifluoromethyl)-4-pyrimidinamine sodium salt sesquihydrate] the figure was 5.6 nM. Still for that read-out and setting: then `FC(F)(F)C(F)(F)c1cc(NCc2ccc(-c3ccccc3-c3nnn[nH]3)cc2)nc(C2CC2)n1` [Example 37, 2-Cyclopropyl-6-(pentafluoroethyl)-N-[[2'-(1H-tetrazol-5-yl)[1,1'-biphenyl]-4-yl]methyl]-4-pyrimidinamine hydrate], with 39 nM; and `CCc1cc(NCc2ccc(-c3ccccc3-c3nnn[nH]3)cc2)nc(C)n1` [Example 38, 6-Ethyl-2-methyl-N-[[2'-(1H-tetrazol-5-yl)[1,1'-biphenyl]-4-yl]methyl]-4-pyrimidinamine acetate trihydrate], with 7.8 nM; and `CCCc1cnc(C(F)(F)F)nc1NCc1ccc(-c2ccccc2-c2nnn[nH]2)cc1` [Example 39, 5-Propyl-N-[[2'-(1H-tetrazol-5-yl)[1,1'-biphenyl]-4-yl]methyl]-2-(trifluoromethyl)-4-pyrimidinamine sodium salt hydrate], with 49 nM.

At angiotensin II receptor, `CCc1nc(C(F)(F)F)nc(NCc2ccc(-c3ccccc3-c3nnn[nH]3)cc2)c1C(C)C` [Example 40, 6-Ethyl-5-(1-methylethyl)-N-[[2'-1H-tetrazol-5-yl)[1,1'-biphenyl]-4-yl]methyl]-2-(trifluoromethyl)-4-pyrimidinamine sodium salt] showed an IC50 of 6.5 nM. Against the preceding molecule, the IC50 is about 7.5-fold lower.

For the molecule `Cc1cccc(Cc2c(NCc3ccc(-c4ccccc4-c4nnn[nH]4)cc3)nc(C)nc2C(F)(F)F)c1` [Example 42, 2-Methyl-5-[(3-methylphenyl)methyl]-N-[[2'-(1H-tetrazol-5-yl)[1,1'-biphenyl]-4-yl]methyl]-6-(trifluoromethyl)-4-pyrimidinamine sodium salt], the IC50 at angiotensin II receptor was found to be 41 nM. Compared with the last molecule, the IC50 is about 6.3-fold higher. Same read-out and setting: then `CCc1c(NCc2ccc(-c3ccccc3-c3nnn[nH]3)cc2)nc(C)nc1C(F)(F)C(F)(F)F` [Example 43, 5-Ethyl-2-methyl-N-[[2'-(1H-tetrazol-5-yl)[1,1'-biphenyl]-4-yl]methyl]-6-(pentafluoroethyl)-4-pyrimidinamine sodium salt hydrate], with 11 nM; and `Cc1nc(NCc2ccc(-c3ccccc3-c3nnn[nH]3)cc2)c(C)c(C(F)(F)F)n1` [Example 44, 2,5-Dimethyl-N-[[2'-(1H-tetrazol-5-yl)[1,1'-biphenyl]-4-yl]methyl]-6-(trifluoromethyl)-4-pyrimidinamine hemihydrate], with 20 nM.

On to `Cc1nc(C(F)(F)F)nc(NCc2ccc(-c3ccccc3-c3nnn[nH]3)cc2)c1Cc1ccccc1` [Example 45, 6-Methyl-5-(phenylmethyl)-N-[[2'-(1H-tetrazol-5-yl)[1,1'-biphenyl]-4-yl]methyl]-2-(trifluoromethyl)-4-pyrimidinamine sodium salt hydrate], for which the IC50 on angiotensin II receptor is 48 nM.

At angiotensin II receptor, `CCCc1c(CC)nc(C(F)(F)F)nc1NCc1ccc(-c2ccccc2-c2nnn[nH]2)cc1` [Example 46, 6-Ethyl-5-propyl-N-[[2'-(1H-tetrazol-5-yl)[1,1'-biphenyl]-4-yl]methyl]-2-(trifluoromethyl)-4-pyrimidinamine sodium salt] registered an IC50 of 2.5 nM. As for `Cc1nc(NCc2ccc(-c3ccccc3-c3nnn[nH]3)cc2)cc(C(F)(F)C(F)(F)F)n1` [Example 47, 2-Methyl-6-(pentafluoroethyl)-N-[[2'-(1H-tetrazol-5-yl)[1,1'-biphenyl]-4-yl]methyl]-4-pyrimidinamine sodium salt hydrate], in the assay on A II-infused rat, the “lowering of the A II dependent blood pressure (average)” value amounted to 57%. The 50% inhibitory concentration (IC50) on angiotensin II receptor was determined as 38 nM. The molecule `Cc1nc(NCc2ccc(-c3ccccc3-c3nnn[nH]3)cc2)cc(C(F)(F)F)n1` [Example 48, 2-Methyl-N-[[2'-(1H-tetrazol-5-yl)[1,1'-biphenyl]-4-yl]methyl]-6-(trifluoromethyl)-4-pyrimidinamine hydrate] gave an IC50 at angiotensin II receptor of 61 nM. On angiotensin II receptor, `Cc1nc(NCc2ccc(-c3ccccc3C(=O)O)cc2)cc(C(F)(F)C(F)(F)F)n1` [Example 50, 4'-[[[2-Methyl-6-(pentafluoroethyl)-4-pyrimidinyl]amino]methyl][1,1'-biphenyl]-2-carboxylic acid hemihydrate] gave an IC50 of 330 nM.

In turn, `Cc1nc(NCc2ccc(-c3ccccc3C(=O)O)cc2)cc(C(F)(F)F)n1` [Example 51, 4'-[[[2-Methyl-6-(trifluoromethyl)-4-pyrimidinyl]amino]methyl][1,1'-biphenyl]-2-carboxylic acid sesquihydrate] displayed an IC50 at angiotensin II receptor of 850 nM. Compared with the last molecule, the IC50 is about 2.6-fold higher. `Cc1cc(NCc2ccc(-c3ccccc3C(=O)O)cc2)nc(C(F)(F)F)n1` [Example 52, 4'-[[[6-Methyl-2-(trifluoromethyl)-4-pyrimidinyl]amino]methyl][1,1'-biphenyl]-2-carboxylic acid] registered an IC50 on angiotensin II receptor of 500 nM.

The molecule `C=CCc1c(C)nc(C)nc1NCc1ccc(-c2ccccc2-c2nnn[nH]2)cc1` [Example 53, 2,6-Dimethyl-5-(2-propenyl)-N-[(2'-(1H-tetrazol-5-yl)[1,1-biphenyl]-4-yl)methyl]-4-pyrimidinamine] returned an IC50 on angiotensin II receptor of 7.5 nM. This IC50 lies about 67-fold lower than the previous one. On the same count and under the same terms, then `C=CCc1c(C)nc(C(F)(F)F)nc1NCc1ccc(-c2ccccc2-c2nnn[nH]2)cc1` [Example 54], with 16 nM; and `Cc1nc(C)c(Cc2cccs2)c(NCc2ccc(-c3ccccc3-c3nnn[nH]3)cc2)n1` [Example 55, 2,6-Dimethyl-5-(2-thienylmethyl)-N-[(2'-(1H-tetrazol-5-yl)[1,1-biphenyl]-4-yl)methyl]-4-pyrimidinamine], with 58 nM; and `Cc1nc(C)c(CC(=O)O)c(NCc2ccc(-c3ccccc3-c3nnn[nH]3)cc2)n1` [Example 56, [2,6-Dimethyl-N-[(2'-(1H-tetrazol-5-yl)[1,1-biphenyl]-4-yl)methyl]-4-pyrimidinamin-5-yl]acetic acid], with 200 nM. Same read-out and setting: with `C#CCc1c(C)nc(C)nc1NCc1ccc(-c2ccccc2-c2nnn[nH]2)cc1` [Example 57, 2,6-Dimethyl-5-(2-propynyl)-N-[(2'-(1H-tetrazol-5-yl)[1,1-biphenyl]-4-yl)methyl]-4-pyrimidinamine] the figure was 39 nM.
